In paper PMC3192407, “Both Basic and Acidic Amino Acid Residues of IpTxa Are Involved in Triggering Substate of RyR1” (Journal of Biomedicine and Biotechnology, 2011):
Where two headings read alike, the source gives them in different places. Bridge positions count the residues as written; N and C are the ends. Peptide text beside a SMILES is read from it.

Assays:
[1] = target: T1, rabbit skeletal RyR1 (native RyR1 in HSR) (Oryctolagus cuniculus, UniProt P11716); test: Planar lipid bilayer single-channel recording, native RyR1 in HSR; assay type: biochemical; conditions: -30 mV
T1 construct: tested using native RyR1 in rabbit skeletal HSR; from tissue; host or cells: rabbit fast-twitch back and leg muscles (heavy SR vesicles)

purified rabbit RyR1 = target: T2, purified rabbit RyR1 (Oryctolagus cuniculus, UniProt P11716); test: Planar lipid bilayer single-channel recording, purified RyR1; assay type: biochemical; conditions: purified RyR1, toxin cis, 6-100 nM, -30 mV, 10 μM Ca^2+, Hill fit, means ± SE of 4–10 experiments; read-out: EC50 for Psubstate
T2 construct: we added IpTxa to purified RyR1 incorporated into planar lipid bilayers; from tissue; host or cells: rabbit skeletal muscle (inferred; purified from HSR)
Description: Single-channel recordings of rabbit skeletal RyR1 incorporated into planar lipid bilayers were carried out as described previously. Lipid bilayers, consisting of brain tissue phosphatidylethanolamine and phosphatidylserine (1 : 1) in decane (20 mg/mL) were formed across a hole of approximately 200 μm diameter. Thinning of the bilayer was monitored by bilayer capacitance. The basic composition of the cis/trans solution consisted of 300 mM cesium methanesulfonate, 10 mM Tris/Hepes (pH 7.2), 2 mM EGTA, and 1.998 mM CaCl2 ([Ca^2+]free = 10 μM). [Ca^2+]free was calculated using the “Chelator” program (Theo Schoenmaker). Cs^+ was selected as the charge carrier to ensure precise control of free [Ca^2+], to increase the channel conductance, and to avoid any contribution from potassium channels present in the SR membrane. Chloride channels were inhibited by using the impermeant anion methanesulfonate. Incorporation of ion channels was carried out as described by Miller and Racker and confirmed by recording the characteristically high single-channel conductance of RyRs. The trans side was maintained at ground and the cis side was clamped at −30 mV relative to the ground. After addition of the IpTxa to the cis chamber, the single channel data were collected at −30 mV for 2–5 min. […] Recordings were filtered with an 8-pole low-pass Bessel filter at 1 kHz and digitalized through a Digidata 1200 series interface (Axon Instruments). Data acquisition and analysis were done with the Axon Instruments software, pClamp v7.0.
Data were analyzed using the Hill equation described previously:
(1) Psubstate=(Psubstate, max )/[1+(EC50/[IpTxa])^nH] orPo=(Po, max )/[1+(EC50/[IpTxa])^nH], where (Po, max ) is the Po observed at saturating concentrations of IpTxa, EC50 is the IpTxa concentration for which 50% of Po, max is obtained and nH is the Hill coefficient. Also, Psubstate, max is the Psubstate observed at saturating concentrations of IpTxa, EC50 is the IpTxa concentration for which 50% of Psubstate, max is obtained, and nH is the Hill coefficient. The probability of full open state of the channel (Po) was defined as the ratio of the time spent in the open state to the total time exclusive of time spent in the substate. The probability to obtain substate (Psubstate) was calculated as the time spent in the substate divided by a given total recording time. The durations of the substate were obtained by manual positioning of the cursors and constructing all point histograms. Mean duration of substate was measured by total substate time divided by total substate frequencies.
Results are given as means ± SE. Significant differences were analyzed using Student's t-test. Differences were considered to be significant when P < 0.05. The fitting of the data to the graphs were carried out using the software, Origin v7.
To determine whether the activation of native RyR1 in SR by IpTxa was due to a direct activation of RyR1 or due to an indirect activation through other proteins associated to RyR1, we added IpTxa to purified RyR1 incorporated into planar lipid bilayers (Figure 3(a)). […] Purity of RyR1 at the final purification step was verified by Coomassie blue staining (Supplementary Figure 2).
Figure 3 Effects of IpTxa on purified rabbit RyR1 incorporated in planar lipid bilayers. (a) Single channel activity of purified RyR1 incorporated in planar lipid bilayers at 10 μM Ca^2+ with or without IpTxa (6–100 nM) was recorded. Single channel currents are shown as downward deflections from the closed level (indicated by c). The holding potential was −30 mV. (b) The plot of Po of purified RyR1 versus various concentrations of IpTxa is shown. (c) The plot of Psubstate of purified RyR1 versus various concentrations of IpTxa is shown. The results are shown as the means ± SE for 7 experiments. […]

[2] = target: rabbit skeletal ryanodine receptor (RyR1) (rabbit) (UniProt P11716)
RyR1 [3] = conditions: ref [16], [18]; cited from earlier work
Description: Imperatoxin A (IpTxa) from the African scorpion Pandinus imperator is a high-affinity modulator of skeletal RyR (RyR1). […] The inconsistency between occurrence of substate and ryanodine binding to RyR1 affected by K8A or T ...

RyR1 [4] = conditions: cited from earlier work
Description: Imperatoxin A (IpTxa) from the African scorpion Pandinus imperator is a high-affinity modulator of skeletal RyR (RyR1). […] Stretches of these positively charged residues tend to adopt different secondary structures such as α-helical structure for Peptide A and β-sheet structure for IpTxa and MCa. However, their orientation on the surface of the peptides could be similar. […] Two toxins induced different degree of substate of RyR1 at +40 mV holding potential (28% and 48% of full conductance state for IpTxa and MCa, resp.). […] Thus, the di ...

T1 sequence (P11716 whole entry): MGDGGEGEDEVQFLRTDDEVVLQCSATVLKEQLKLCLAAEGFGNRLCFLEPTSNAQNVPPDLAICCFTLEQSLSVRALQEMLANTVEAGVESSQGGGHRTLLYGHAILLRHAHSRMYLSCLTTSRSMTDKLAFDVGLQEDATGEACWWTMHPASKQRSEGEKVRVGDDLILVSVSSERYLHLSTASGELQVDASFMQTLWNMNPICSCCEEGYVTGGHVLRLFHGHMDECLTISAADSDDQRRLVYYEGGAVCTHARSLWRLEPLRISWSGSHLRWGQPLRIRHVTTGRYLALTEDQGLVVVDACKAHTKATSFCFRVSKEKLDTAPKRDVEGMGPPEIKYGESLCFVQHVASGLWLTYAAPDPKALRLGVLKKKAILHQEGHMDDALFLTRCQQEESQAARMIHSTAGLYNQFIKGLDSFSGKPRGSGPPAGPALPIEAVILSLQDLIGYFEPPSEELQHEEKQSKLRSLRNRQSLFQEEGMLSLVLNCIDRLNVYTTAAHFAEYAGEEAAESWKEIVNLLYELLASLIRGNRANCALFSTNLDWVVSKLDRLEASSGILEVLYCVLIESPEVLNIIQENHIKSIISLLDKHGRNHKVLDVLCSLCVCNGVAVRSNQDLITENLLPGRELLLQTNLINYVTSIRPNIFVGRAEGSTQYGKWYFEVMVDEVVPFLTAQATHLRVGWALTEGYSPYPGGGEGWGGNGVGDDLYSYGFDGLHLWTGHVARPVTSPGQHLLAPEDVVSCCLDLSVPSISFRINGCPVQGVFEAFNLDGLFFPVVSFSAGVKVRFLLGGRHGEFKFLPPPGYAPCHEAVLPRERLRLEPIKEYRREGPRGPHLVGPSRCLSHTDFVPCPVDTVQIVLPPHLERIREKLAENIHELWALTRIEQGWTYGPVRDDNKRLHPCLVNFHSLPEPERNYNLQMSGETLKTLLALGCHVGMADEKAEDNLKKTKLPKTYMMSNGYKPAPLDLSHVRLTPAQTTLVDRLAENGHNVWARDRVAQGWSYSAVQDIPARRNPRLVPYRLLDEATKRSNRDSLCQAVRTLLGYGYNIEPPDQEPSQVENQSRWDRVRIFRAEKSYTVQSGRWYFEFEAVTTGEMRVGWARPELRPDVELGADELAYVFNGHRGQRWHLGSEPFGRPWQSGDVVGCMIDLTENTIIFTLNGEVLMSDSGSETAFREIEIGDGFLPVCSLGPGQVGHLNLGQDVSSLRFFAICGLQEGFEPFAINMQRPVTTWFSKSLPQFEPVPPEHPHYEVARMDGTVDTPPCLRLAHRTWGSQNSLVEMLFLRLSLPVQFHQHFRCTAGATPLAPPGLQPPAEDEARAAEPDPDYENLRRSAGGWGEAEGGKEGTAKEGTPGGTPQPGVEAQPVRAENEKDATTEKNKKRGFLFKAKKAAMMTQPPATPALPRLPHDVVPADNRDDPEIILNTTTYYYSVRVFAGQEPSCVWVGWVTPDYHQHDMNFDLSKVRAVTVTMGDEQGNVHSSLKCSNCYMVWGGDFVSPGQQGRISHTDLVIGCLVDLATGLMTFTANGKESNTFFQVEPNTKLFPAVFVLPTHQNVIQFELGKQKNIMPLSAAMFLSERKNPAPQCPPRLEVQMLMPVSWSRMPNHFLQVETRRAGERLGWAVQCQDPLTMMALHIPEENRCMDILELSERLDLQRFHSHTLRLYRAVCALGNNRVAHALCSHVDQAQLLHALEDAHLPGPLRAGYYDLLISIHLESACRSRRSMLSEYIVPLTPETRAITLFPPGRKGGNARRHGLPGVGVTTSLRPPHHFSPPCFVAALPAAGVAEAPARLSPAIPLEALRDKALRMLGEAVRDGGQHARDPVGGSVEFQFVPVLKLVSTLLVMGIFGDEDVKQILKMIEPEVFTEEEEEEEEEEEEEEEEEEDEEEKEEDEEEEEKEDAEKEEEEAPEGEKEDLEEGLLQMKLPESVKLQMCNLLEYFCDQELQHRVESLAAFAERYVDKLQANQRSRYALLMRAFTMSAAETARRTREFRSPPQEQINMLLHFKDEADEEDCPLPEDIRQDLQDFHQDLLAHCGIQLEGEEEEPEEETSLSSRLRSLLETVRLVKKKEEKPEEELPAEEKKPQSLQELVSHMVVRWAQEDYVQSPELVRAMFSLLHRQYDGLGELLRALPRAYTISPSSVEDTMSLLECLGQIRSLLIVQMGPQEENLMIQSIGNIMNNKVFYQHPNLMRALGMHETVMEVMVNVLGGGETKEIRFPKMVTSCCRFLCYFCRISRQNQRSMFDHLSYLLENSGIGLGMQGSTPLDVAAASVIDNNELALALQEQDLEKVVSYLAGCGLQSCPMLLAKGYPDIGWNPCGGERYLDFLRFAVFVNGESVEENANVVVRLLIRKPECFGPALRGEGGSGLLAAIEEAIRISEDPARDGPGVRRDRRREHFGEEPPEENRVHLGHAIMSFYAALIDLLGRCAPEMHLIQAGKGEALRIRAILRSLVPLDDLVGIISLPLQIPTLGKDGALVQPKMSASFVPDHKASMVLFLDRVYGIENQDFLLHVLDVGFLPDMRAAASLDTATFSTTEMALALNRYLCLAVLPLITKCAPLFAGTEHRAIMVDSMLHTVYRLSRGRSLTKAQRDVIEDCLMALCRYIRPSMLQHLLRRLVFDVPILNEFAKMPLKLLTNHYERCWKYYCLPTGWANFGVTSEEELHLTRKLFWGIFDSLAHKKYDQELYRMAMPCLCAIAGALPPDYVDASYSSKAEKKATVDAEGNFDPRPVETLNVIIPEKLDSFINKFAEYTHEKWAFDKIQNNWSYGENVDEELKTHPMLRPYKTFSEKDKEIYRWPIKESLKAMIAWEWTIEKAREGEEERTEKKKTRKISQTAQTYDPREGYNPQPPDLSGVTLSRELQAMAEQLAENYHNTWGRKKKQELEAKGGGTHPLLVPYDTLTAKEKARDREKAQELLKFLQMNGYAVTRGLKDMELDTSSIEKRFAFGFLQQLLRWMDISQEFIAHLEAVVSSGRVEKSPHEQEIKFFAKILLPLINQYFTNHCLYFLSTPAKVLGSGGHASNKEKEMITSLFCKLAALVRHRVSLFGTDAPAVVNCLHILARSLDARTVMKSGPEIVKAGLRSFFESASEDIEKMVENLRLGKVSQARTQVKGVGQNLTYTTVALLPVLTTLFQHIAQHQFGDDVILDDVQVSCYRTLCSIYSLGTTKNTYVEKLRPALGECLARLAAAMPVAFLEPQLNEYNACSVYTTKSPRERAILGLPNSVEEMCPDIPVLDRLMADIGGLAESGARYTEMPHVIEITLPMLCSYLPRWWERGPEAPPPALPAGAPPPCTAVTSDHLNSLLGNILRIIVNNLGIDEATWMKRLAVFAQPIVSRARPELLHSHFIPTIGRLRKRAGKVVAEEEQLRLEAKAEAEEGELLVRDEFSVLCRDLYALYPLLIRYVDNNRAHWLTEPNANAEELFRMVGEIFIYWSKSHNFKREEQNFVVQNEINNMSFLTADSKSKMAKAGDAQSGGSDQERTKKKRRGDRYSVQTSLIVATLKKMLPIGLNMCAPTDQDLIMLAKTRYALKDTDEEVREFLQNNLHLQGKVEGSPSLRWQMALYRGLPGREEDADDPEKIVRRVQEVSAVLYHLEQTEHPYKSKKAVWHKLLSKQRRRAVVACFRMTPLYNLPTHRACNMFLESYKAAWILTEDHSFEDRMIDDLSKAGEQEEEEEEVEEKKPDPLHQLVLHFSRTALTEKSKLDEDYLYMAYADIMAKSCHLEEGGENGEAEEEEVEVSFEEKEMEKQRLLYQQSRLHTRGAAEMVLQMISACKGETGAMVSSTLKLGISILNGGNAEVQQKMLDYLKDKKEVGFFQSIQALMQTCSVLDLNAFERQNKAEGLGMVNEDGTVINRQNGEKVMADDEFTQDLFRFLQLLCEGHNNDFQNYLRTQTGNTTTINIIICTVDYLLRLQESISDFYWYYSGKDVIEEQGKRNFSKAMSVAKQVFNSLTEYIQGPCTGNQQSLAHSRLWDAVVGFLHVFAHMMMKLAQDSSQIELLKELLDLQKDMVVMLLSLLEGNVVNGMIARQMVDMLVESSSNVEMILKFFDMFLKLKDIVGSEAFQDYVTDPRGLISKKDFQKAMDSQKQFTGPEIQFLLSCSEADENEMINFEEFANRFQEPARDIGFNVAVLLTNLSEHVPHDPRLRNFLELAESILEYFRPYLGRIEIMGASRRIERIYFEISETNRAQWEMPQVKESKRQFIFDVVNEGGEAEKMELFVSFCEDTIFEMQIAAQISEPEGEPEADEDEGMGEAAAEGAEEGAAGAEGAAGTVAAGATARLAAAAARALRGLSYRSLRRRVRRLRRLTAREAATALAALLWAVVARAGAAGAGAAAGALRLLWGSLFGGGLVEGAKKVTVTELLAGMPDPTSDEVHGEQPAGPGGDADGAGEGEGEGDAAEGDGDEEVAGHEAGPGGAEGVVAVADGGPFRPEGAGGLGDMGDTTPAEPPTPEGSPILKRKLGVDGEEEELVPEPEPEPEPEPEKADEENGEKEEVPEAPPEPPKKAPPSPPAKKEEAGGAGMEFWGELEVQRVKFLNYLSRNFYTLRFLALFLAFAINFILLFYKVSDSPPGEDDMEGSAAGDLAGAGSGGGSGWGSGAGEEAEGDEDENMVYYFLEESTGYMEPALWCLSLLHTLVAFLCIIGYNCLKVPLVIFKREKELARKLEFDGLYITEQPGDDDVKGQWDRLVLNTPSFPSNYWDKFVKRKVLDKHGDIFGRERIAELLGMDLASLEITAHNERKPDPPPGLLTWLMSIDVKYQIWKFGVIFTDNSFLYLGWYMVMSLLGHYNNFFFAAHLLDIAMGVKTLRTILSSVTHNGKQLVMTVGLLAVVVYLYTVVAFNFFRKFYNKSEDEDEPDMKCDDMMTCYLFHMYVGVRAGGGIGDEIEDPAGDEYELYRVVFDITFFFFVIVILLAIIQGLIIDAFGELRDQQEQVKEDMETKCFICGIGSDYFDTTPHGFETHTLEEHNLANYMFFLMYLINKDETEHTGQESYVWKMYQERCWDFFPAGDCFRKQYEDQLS
T2 sequence (P11716 whole entry): as above

For `CC(C)C[C@@H]1NC(=O)[C@H](Cc2c[nH]cn2)NC(=O)[C@@H]2CCCN2C(=O)[C@H](CC(C)C)NC(=O)[C@@H](NC(=O)[C@H](CC(=O)O)NC(=O)CN)CSSC[C@@H]2NC(=O)[C@@H]3CSSC[C@@H](C(=O)N[C@@H](CCCNC(=N)N)C(=O)O)NC(=O)[C@H](CCCNC(=N)N)NC(=O)[C@H](CCCCN)NC(=O)[C@H](CCC(=O)O)NC(=O)[C@H](C)NC(=O)[C@H](CC(N)=O)NC(=O)[C@H]([C@@H](C)O)NC(=O)CNC(=O)[C@H](CCCNC(=N)N)NC(=O)[C@H](CCCNC(=N)N)NC(=O)[C@H](CCCCN)NC(=O)[C@H](CSSC[C@H](NC(=O)[C@H](CCCNC(=N)N)NC(=O)[C@H](CCCCN)NC1=O)C(=O)N[C@@H](CCCCN)C(=O)N[C@@H](C)C(=O)N[C@@H](CC(=O)O)C(=O)N[C@@H](CC(N)=O)C(=O)N[C@@H](CC(=O)O)C(=O)N3)NC(=O)[C@H](CCCCN)NC(=O)[C@H](CCCCN)NC(=O)CNC2=O` [Wild type, Imperatoxin A] (H-GDCLPHLKRCKADNDCCGKKCKRRGTNAEKRCR-OH; disulfide 3-17, 10-21, 16-32), the EC50 ([1]; native RyR1, toxin cis, 10 μM Ca^2+, Hill fit, means ± SE of ten experiments, read-out: EC50 for Po) was 17.4 ± 4.67 nM, the EC50 ([1]; native RyR1 in SR, toxin cis, 6-100 nM, [Ca^2+]free 10 μM, pH 7.2, Hill fit, means ± SE of 3–9 experiments, read-out: EC50 for Psubstate) was 23.3 ± 2.37 nM and the EC50 (purified rabbit RyR1) was 17.1 ± 2.31 nM.
For “Imperatoxin A (IpTxa), synthetic wild type (from UniProt P59868 1-33) (peptide)”, the mean duration of substate of native RyR1 in HSR at 30 nM toxin [2] was 4.56 s.
With “IpTxa D2A (from UniProt P59868 1-33) (peptide)” the mean duration of substate of native RyR1 in HSR at 30 nM toxin [2] was 2.96 s.
“IpTxa R9A (from UniProt P59868 1-33) (peptide)” gave a mean duration of substate of native RyR1 in HSR at 30 nM toxin [2] of 5.86 s.
In the case of maurocalcine [MCa], the “[^3H]ryanodine binding (in words)” value (RyR1 [3]) is given as “strongly enhances [^3H]ryanodine binding to RyR1”, the “substate current amplitude, % of full conductance state” value (RyR1 [4]; +40 mV holding potential, ref [10], [13]) is given as 48% and the “substate current amplitude, % of full conductance” value (RyR1 [4]; long-lasting substate of RyR1, ref [16], [18]) is given as 48%. For the same molecule, the “modification of channel gating by MCa and peptide A together (in words)” value (RyR1 [4]; ref [16]) was “in an additive, but not competitive, manner”.
